Results from patent US6545167B1, “Simple and effective manufacturing process for large scale recovery of Nimbin, a Neem seed constituent” (Fortune Bio-Tech Limited, priority 2002, dated 2003).

Tests used:
[1] = test system: several classes of insects (Lepidoptera, Coleoptera, Homoptera); experiment: insecticidal action of Nimbin; assay type: in vivo; conditions: diamondback moth, imported cabbage worm, cabbage looper, tobacco budworm, Colorado potato beetle, green apple aphid, green peach aphid, potato leafhopper
skin = experiment: topical administration of Nimbin: tone of the skin; assay type: in vivo, humans
[2] = test study of pure Nimbin in humans: analgesic effects; assay type: in vivo; conditions: pure Nimbin consumed orally (10 mg/day)
Procedure: (§1) For example, pure Nimbin has been consumed orally (10 mg/day) in a test study to observe therapeutic/pharmacological effects of the compound various systems/maladies in humans.

benign tumors = experiment: systemic administration of Nimbin: benign tumors; assay type: in vivo, humans
Procedure: as §1

COC(=O)C[C@H]1[C@]2(C)C3=C(C)[C@H](c4ccoc4)C[C@H]3O[C@@H]2[C@H](OC(C)=O)[C@@H]2[C@]1(C)C(=O)C=C[C@@]2(C)C(=O)OC [Nimbin]
insecticidal action [1]: broad spectrum insecticidal action
effect on tone of the skin (skin): modulates the tone of the skin
analgesic effects [2]: analgesic effects
action on benign tumors (benign tumors): regressive actions on benign tumors
